US12319655B2, “RAF kinase inhibitors and methods of use thereof” (Deciphera Pharmaceuticals, LLC, priority 2021, dated 2025)

Columns and labels:
[1] = biological target: C-Raf kinase (SEQ. ID NO: 3) (Homo sapiens (Human), UniProt P04049, Y340D/Y341D); experiment: Biochemical Assay for C-Raf (1); conditions: Table J, assay version (1); read-out: CRAF (1) IC50
Protocol: Biochemical Assay for C-Raf (1)
(§1) Activity of C-Raf kinase (SEQ. ID NO: 3) was determined spectroscopically using a coupled pyruvate kinase/lactate dehydrogenase assay that continuously monitors the ATP hydrolysis-dependent oxidation of NADH (e.g., Schindler et al., Science, 2000, 289, 1938-1942). Assays were conducted in 384-well plates (100 μL final volume) using 0.43 nM C-Raf (Sigma), 1.5 units pyruvate kinase, 2.1 units lactate dehydrogenase, 1 mM phosphoenol pyruvate, 0.28 mM NADH, 30.1 nM MEK (SignalChem), and 1 mM ATP in assay buffer (100 mM Tris, Ph 7.5, 15 mM MgCl2, 0.5 mM DTT, 0.1% octyl-glucoside, 0.002% (w/v) BSA, and 0.002% Triton X-100). Inhibition of C-Raf was measured by adding serial diluted test compound (final assay concentration of 1% DMSO). A decrease in absorption at 340 nm was monitored continuously for 6 h at 30° C. on a multi-mode microplate reader (BioTek). The reaction rate was calculated using the 4 to 5 h time frame. The reaction rate at each concentration of compound was converted to percent inhibition using controls (i.e., reaction with no test compound and reaction with a known inhibitor) and IC50 values were calculated by fitting a four-parameter sigmoidal curve to the data using Prism (GraphPad software).

A375 cells = experiment: A375 Cell Proliferation Assay (1); assay type: cell-based; conditions: Homo sapiens, A-375
Protocol: A375 Cell Proliferation Assay (1)
A375 cells (catalog (#CRL-1619) are obtained from the American Type Culture Collect (ATTC, Manassas, VA). Briefly, cells were grown in DMEM High Glucose supplemented with 10% characterized fetal bovine serum (Invitrogen, Carlsbad, CA) and 1% Penicillin/Streptomycin/L-Glutamine at 37° C., 5% CO2, and 95% humidity. Cells are expanded until reaching 70-95% confluency at which point they are sub-cultured or harvested for assay use. A serial dilution of test compound is dispensed into a 96-well black clear bottom plate in triplicate. Two thousand five hundred cells are added per well in 200 μL complete growth medium in the 96-well plate. Plates are incubated for 67-72 h at 37° C., 5% CO2, and 95% humidity. At the end of the incubation, 40 μL of a 440 μM solution of resazurin (Sigma, St. Louis, MO) in PBS is added to each well of the plate and plates are incubated for an additional 5-6 h at 37° C., 5% CO2, and 95% humidity. Plates are read on a Synergy2 or equivalent reader (Biotek, Winooski VT) using an excitation of 540 nm and an emission of 600 nm. Data is analyzed using Prism software (GraphPad, San Diego, CA) to calculate IC50 values.

[2] = biological target: B-Raf (V600E) (SEQ. ID NO: 4) kinase (Homo sapiens (Human), UniProt P15056, V600E); experiment: Biochemical Assay for B-Raf (V600E) (1); conditions: Table J, BRAF V600E, assay version (1); read-out: BRAF VE (1) IC50
Sequence of B-Raf (V600E) (SEQ. ID NO: 4) kinase (P15056 416-766 V600E): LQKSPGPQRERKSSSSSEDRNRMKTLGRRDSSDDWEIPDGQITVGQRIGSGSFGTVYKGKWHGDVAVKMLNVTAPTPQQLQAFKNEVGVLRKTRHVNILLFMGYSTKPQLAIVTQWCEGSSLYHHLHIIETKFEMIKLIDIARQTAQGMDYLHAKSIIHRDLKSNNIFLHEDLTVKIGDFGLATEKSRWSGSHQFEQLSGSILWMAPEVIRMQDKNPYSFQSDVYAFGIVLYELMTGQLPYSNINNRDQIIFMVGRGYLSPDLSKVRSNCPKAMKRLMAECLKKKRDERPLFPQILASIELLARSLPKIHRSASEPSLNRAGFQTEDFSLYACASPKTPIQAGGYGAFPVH
Protocol: Biochemical Assay for B-Raf (V600E) (1)
Activity of B-Raf (V600E) (SEQ. ID NO: 4) kinase was determined spectroscopically using a coupled pyruvate kinase/lactate dehydrogenase assay that continuously monitors the ATP hydrolysis-dependent oxidation of NADH (e.g., Schindler et al., Science, 2000, 289, 1938-1942). Assays were conducted in 384-well plates (100 μL final volume) using 0.03 nM B-Raf (SignalChem), 1.5 units pyruvate kinase, 2.1 units lactate dehydrogenase, 1 mM phosphoenol pyruvate, 0.28 mM NADH, 30.1 nM MEK (SignalChem), and 1 mM ATP in assay buffer (100 mM Tris, Ph 7.5, 15 mM MgCl2, 0.5 mM DTT, 0.1% octyl-glucoside, 0.002% (w/v) BSA, and 0.002% Triton X-100). Inhibition of B-Raf (V600E) was measured by adding serial diluted test compound (final assay concentration of 1% DMSO). A decrease in absorption at 340 nm was monitored continuously for 6 h at 30° C. on a multi-mode microplate reader (BioTek). The reaction rate was calculated using the 3 to 4 h time frame. The reaction rate at each concentration of compound was converted to percent inhibition using controls (i.e., reaction with no test compound and reaction with a known inhibitor) and IC50 values were calculated by fitting a four-parameter sigmoidal curve to the data using Prism (GraphPad software).

[3] = biological target: A-Raf kinase (SEQ. ID No: 1) (Homo sapiens (Human), UniProt P10398, Y301D/Y302D); experiment: Biochemical Assay for A-Raf (1); conditions: Table J, assay version (1); read-out: ARAF (1) IC50
Sequence of A-Raf kinase (SEQ. ID No: 1) (P10398 other isoform, or with tags, fused parts or gaps Y301D (already in the parent)/Y302D (already in the parent)): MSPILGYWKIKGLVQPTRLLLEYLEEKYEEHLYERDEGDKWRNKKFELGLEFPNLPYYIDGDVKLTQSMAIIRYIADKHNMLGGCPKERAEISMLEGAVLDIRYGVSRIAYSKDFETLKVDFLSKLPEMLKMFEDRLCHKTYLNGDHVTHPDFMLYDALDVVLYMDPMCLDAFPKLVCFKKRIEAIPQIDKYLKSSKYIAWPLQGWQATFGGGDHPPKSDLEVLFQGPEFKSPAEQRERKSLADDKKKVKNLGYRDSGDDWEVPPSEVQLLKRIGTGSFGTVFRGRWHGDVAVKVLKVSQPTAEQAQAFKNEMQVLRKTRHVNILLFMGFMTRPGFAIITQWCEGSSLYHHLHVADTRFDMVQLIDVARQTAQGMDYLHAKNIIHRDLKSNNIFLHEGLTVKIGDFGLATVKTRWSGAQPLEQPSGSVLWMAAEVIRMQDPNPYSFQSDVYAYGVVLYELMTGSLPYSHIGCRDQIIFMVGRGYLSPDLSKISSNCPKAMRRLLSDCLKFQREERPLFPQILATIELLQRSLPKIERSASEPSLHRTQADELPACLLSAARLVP
Protocol: Biochemical Assay for A-Raf (1)
as §1, with “A-Raf” for “C-Raf”, “No: 1)” for “NO: 3)”, “5.55” for “0.43”, “pH” for “Ph”

[4] = biological target: B-Raf kinase (SEQ. ID NO: 2) (Homo sapiens (Human), UniProt P15056); experiment: Biochemical Assay for B-Raf (1); conditions: Table J, assay version (1); read-out: BRAF (1) IC50
Sequence of B-Raf kinase (SEQ. ID NO: 2) (P15056 416-766): as the sequence (P15056 416-766 V600E) above, with E185V counted along it
Protocol: Biochemical Assay for B-Raf (1)
as §1, with “B-Raf” for “C-Raf”, “2)” for “3)”, “0.13” for “0.43”

Sequence of C-Raf kinase (SEQ. ID NO: 3) (P04049 307-648 Y340D/Y341D): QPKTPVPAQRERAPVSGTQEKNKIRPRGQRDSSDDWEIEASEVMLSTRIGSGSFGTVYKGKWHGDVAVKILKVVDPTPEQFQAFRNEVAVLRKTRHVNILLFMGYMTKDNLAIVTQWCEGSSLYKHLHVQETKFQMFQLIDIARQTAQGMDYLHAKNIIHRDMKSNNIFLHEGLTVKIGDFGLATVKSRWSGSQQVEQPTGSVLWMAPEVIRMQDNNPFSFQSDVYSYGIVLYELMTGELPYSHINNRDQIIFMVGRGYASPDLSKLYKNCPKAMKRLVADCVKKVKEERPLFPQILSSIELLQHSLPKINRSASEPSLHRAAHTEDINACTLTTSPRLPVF

Compound	IC50 [1] [nM]	IC50 (A375 cells) [nM]	IC50 [2] [nM]	IC50 [3] [nM]	IC50 [4] [nM]
Cc1ccc(NC(=O)c2ccnc(C(F)(F)F)c2)cc1-c1ccnc(-c2ccncc2)c1 [Example 44]	≤ 100	1000 to 10000	≤ 100	1000 to 10000	≤ 100
Cc1ccc(NC(=O)c2ccnc(C(F)(F)F)c2)cc1-c1ccnc(-c2cncnc2)c1 [Example 45]	≤ 100	1000 to 10000	≤ 100	1000 to 10000	≤ 100
CNC(=O)c1cc(-c2cc(-c3cc(NC(=O)c4ccnc(C(F)(F)F)c4)ccc3F)cc(C)n2)ccn1 [Example 66]	≤ 100	1000 to 10000	≤ 100	1000 to 10000	1000 to 10000
CNC(=O)c1cc(-c2cccc(-c3cc(NC(=O)c4cccc(C)c4)cnc3C)c2)ccn1 [Example 91]	≤ 100	1000 to 10000	≤ 100	1000 to 10000	≤ 100
COC(C)(C)c1cc(C(=O)Nc2ccc(C)c(-c3nccc(-c4ccnc(NC(=O)C5CC5)c4)n3)c2)ccn1 [Example 239]	≤ 100	≤ 100	≤ 100	500 to 1000	≤ 100
Cc1ncc(NC(=O)c2ccnc(C(C)(C)C#N)c2)cc1-c1cccc(-c2ccnc(N)n2)c1 [Example 289]	100 to 500	1000 to 10000	≤ 100	1000 to 10000	100 to 500
Cc1ncc(NC(=O)c2ccnc(C3(C#N)CC3)c2)cc1-c1nccc(-c2ccnc(NC(=O)C3CC3)c2)n1 [Example 293]	≤ 100	100 to 500	≤ 100	1000 to 10000	≤ 100

Continued, values first:

IC50 [1] [nM]	IC50 (A375 cells) [nM]	IC50 [2] [nM]	IC50 [3] [nM]	IC50 [4] [nM]	Compound
≤ 100	500 to 1000	≤ 100	1000 to 10000	≤ 100	Cc1ncc(NC(=O)c2ccnc(C(F)(F)F)c2)cc1-c1cccc(-c2ccnc(NC(=O)CN(C)C)c2)c1 [Example 95]
100 to 500	100 to 500	≤ 100	1000 to 10000	100 to 500	CC(=O)Nc1cc(-c2cc(-c3cc(NC(=O)c4ccnc(C(C)(C)C#N)c4)c(F)cc3C)cn(C)c2=O)ccn1 [Example 116]
≤ 100	500 to 1000	≤ 100	100 to 500	≤ 100	Cc1ccc(NC(=O)c2ccnc(C(F)(F)F)c2)cc1-c1ccnc(-c2ccnc(NC(=O)CC#N)c2)n1 [Example 144]
100 to 500	1000 to 10000	≤ 100	1000 to 10000	100 to 500	Cc1ccc(NC(=O)c2cccc(C(C)(C)C#N)c2)cc1-c1cncc(-c2ccnc(C(=O)NC3CC3)c2)n1 [Example 149]
100 to 500	1000 to 10000	≤ 100	1000 to 10000	100 to 500	CC(=O)Nc1cc(-c2cc(-c3cc(NC(=O)c4ccnc(C(F)(F)F)c4)c(F)cc3C)cc(=O)n2C)ccn1 [Example 155]
≤ 100	100 to 500	≤ 100	1000 to 10000	≤ 100	CC(=O)Nc1cc(-c2nccc(-c3cc(NC(=O)c4ccnc(C(C)(C)C#N)c4)cnc3C)n2)ccn1 [Example 195]
≤ 100	100 to 500	≤ 100	1000 to 10000	100 to 500	Cc1ccc(NC(=O)c2ccnc(C(C)(C)C#N)c2)cc1-c1ccnc(-c2ccnc(NC(=O)C3(C)CC3)c2)n1 [Example 248]
≤ 100	1000 to 10000	≤ 100	500 to 1000	≤ 100	Cc1cc(F)c(NC(=O)c2ccnc(C(F)F)c2)cc1-c1cncc(-c2ccnc(NC(=O)C3CC3)c2)n1 [Example 275]
1000 to 10000	1000 to 10000	1000 to 10000	1000 to 10000	1000 to 10000	CNC(=O)c1cc(-c2cnnc(-c3cc(NC(=O)c4cnn(C5CC5)c4)cnc3C)c2)ccn1 [Example 324]
